Assays:
Format in all cases: functional
[1] = Cytotoxicity against Homo sapiens (human) NCI-ADR-RES cells after 48 hr by sulforhodamine B assay
NCI-H522 = experiment: Cytotoxicity against Homo sapiens (human) NCI-H522 cells after 48 hr by sulforhodamine B assay; conditions: NCI-H522, 48 h; for CC50: read-out: LC50 (the source's name)
NCI-H226 = experiment: Cytotoxicity against Homo sapiens (human) NCI-H226 cells after 48 hr by sulforhodamine B assay; conditions: NCI-H226, 48 h; for CC50: read-out: LC50 (the source's name)
CCRF-CEM = experiment: Cytotoxicity against Homo sapiens (human) CCRF-CEM cells after 48 hr by sulforhodamine B assay; conditions: for CC50: read-out: LC50 (the source's name)
UO-31 = experiment: Cytotoxicity against Homo sapiens (human) UO31 cells after 48 hr by sulforhodamine B assay; conditions: UO-31, 48 h
A549 = experiment: Cytotoxicity against Homo sapiens (human) A549 cells after 48 hr by sulforhodamine B assay; conditions: A549, 48 h; for CC50: read-out: LC50 (the source's name)
OVCAR-8 = experiment: Cytotoxicity against Homo sapiens (human) OVCAR8 cells after 48 hr by sulforhodamine B assay; conditions: OVCAR-8, 48 h
K562 = experiment: Cytotoxicity against Homo sapiens (human) K562 cells after 48 hr by sulforhodamine B assay; conditions: K562, 48 h; for CC50: read-out: LC50 (the source's name)
SF-539 = experiment: Cytotoxicity against Homo sapiens (human) SF539 cells after 48 hr by sulforhodamine B assay; conditions: SF-539, 48 h
HCT-15 = experiment: Cytotoxicity against Homo sapiens (human) HCT15 cells after 48 hr by sulforhodamine B assay; conditions: HCT-15, 48 h; for CC50: read-out: LC50 (the source's name)
M14 = experiment: Cytotoxicity against Homo sapiens (human) M14 cells after 48 hr by sulforhodamine B assay; conditions: M14, 48 h
CAKI-1 = experiment: Cytotoxicity against Homo sapiens (human) Caki1 cells after 48 hr by sulforhodamine B assay; conditions: CAKI-1, 48 h; for CC50: read-out: LC50 (the source's name)
SK-MEL-28 = experiment: Cytotoxicity against Homo sapiens (human) SK-MEL-28 cells after 48 hr by sulforhodamine B assay; conditions: SK-MEL-28, 48 h
SN12C = experiment: Cytotoxicity against Homo sapiens (human) SN12C cells after 48 hr by sulforhodamine B assay
HOP-92 = experiment: Cytotoxicity against Homo sapiens (human) HOP92 cells after 48 hr by sulforhodamine B assay; conditions: HOP-92, 48 h
U-251 = experiment: Cytotoxicity against Homo sapiens (human) U251 cells after 48 hr by sulforhodamine B assay; conditions: U-251, 48 h
BT-549 = experiment: Cytotoxicity against Homo sapiens (human) BT549 cells after 48 hr by sulforhodamine B assay; conditions: BT-549, 48 h
SF-268 = experiment: Cytotoxicity against Homo sapiens (human) SF268 cells after 48 hr by sulforhodamine B assay; conditions: SF-268, 48 h; for CC50: read-out: LC50 (the source's name)
UACC-62 = experiment: Cytotoxicity against Homo sapiens (human) UACC62 cells after 48 hr by sulforhodamine B assay; conditions: UACC-62, 48 h
UACC-257 = experiment: Cytotoxicity against Homo sapiens (human) UACC257 cells after 48 hr by sulforhodamine B assay; conditions: UACC-257, 48 h
A498 = experiment: Cytotoxicity against Homo sapiens (human) A498 cells after 48 hr by sulforhodamine B assay; conditions: A498, 48 h
LOX IMVI = experiment: Cytotoxicity against Homo sapiens (human) LOXIMVI cells after 48 hr by sulforhodamine B assay
786-0 = experiment: Cytotoxicity against Homo sapiens (human) 786-0 cells after 48 hr by sulforhodamine B assay; conditions: 786-0, 48 h
MCF7 = experiment: Cytotoxicity against Homo sapiens (human) MCF7 cells assessed as cell growth at 10^-4 M after 48 hr by Alamar blue assay; conditions: MCF7, 48 h, read-out: Activity
NCI-H460 = experiment: Cytotoxicity against Homo sapiens (human) NCI-H460 cells assessed as cell growth at 10^-4 M after 48 hr by Alamar blue assay; conditions: NCI-H460, 48 h, read-out: Activity
NCI-H23 = experiment: Cytotoxicity against Homo sapiens (human) NCI-H23 cells after 48 hr by sulforhodamine B assay; conditions: NCI-H23, 48 h; for CC50: read-out: LC50 (the source's name)
ACHN = experiment: Cytotoxicity against Homo sapiens (human) ACHN cells after 48 hr by sulforhodamine B assay; conditions: for CC50: read-out: LC50 (the source's name)
SNB-19 = experiment: Cytotoxicity against Homo sapiens (human) SNB19 cells after 48 hr by sulforhodamine B assay; conditions: SNB-19, 48 h

ClCc1ccccc1Cn1cnc2nc(Cl)nc(Cl)c21
GI50 [1]: 2.34 µM
LC50 (concentration killing 50% of cells) [1]: > 100 µM
TGI [1]: 5.01 µM
GI50 (NCI-H522): 2.95 µM
TGI (NCI-H522): 7.24 µM
CC50 (NCI-H522): > 100 µM
GI50 (NCI-H226): 2.13 µM
TGI (NCI-H226): 6.76 µM
CC50 (NCI-H226): 28.2 µM
GI50 (CCRF-CEM): 0.1 µM
TGI (CCRF-CEM): 0.3 µM
CC50 (CCRF-CEM): 0.93 µM
GI50 (UO-31): 1.73 µM
GI50 (A549): 2.81 µM
TGI (A549): 5.75 µM
CC50 (A549): > 100 µM
GI50 (OVCAR-8): 2.75 µM
LC50 (concentration killing 50% of cells) (OVCAR-8): 75.9 µM
TGI (OVCAR-8): 7.07 µM
GI50 (K562): 0.25 µM
TGI (K562): 0.69 µM
CC50 (K562): > 100 µM
GI50 (SF-539): 2.13 µM
LC50 (concentration killing 50% of cells) (SF-539): 8.31 µM
TGI (SF-539): 4.26 µM
GI50 (HCT-15): 0.19 µM
TGI (HCT-15): 0.43 µM
CC50 (HCT-15): 0.95 µM
GI50 (M14): 1.86 µM
LC50 (M14): 6.45 µM
TGI (M14): 3.46 µM
GI50 (CAKI-1): 19.5 µM
TGI (CAKI-1): 34.7 µM
CC50 (CAKI-1): 61.6 µM
GI50 (SK-MEL-28): 0.35 µM
LC50 (concentration killing 50% of cells) (SK-MEL-28): > 100 µM
TGI (SK-MEL-28): > 100 µM
GI50 (SN12C): 1.17 µM
LC50 (50% lethal concentration) (SN12C): 5.62 µM
TGI (SN12C): 2.57 µM
GI50 (HOP-92): 1.14 µM
TGI (HOP-92): 2.81 µM
CC50 (HOP-92; read-out: LC50 (the source's name)): > 100 µM
GI50 (U-251): 0.33 µM
LC50 (concentration killing 50% of cells) (U-251): 3.63 µM
TGI (U-251): 1.17 µM
GI50 (BT-549): 1.34 µM
LC50 (50% lethal concentration) (BT-549): 7.07 µM
TGI (BT-549): 3.09 µM
GI50 (SF-268): 3.01 µM
TGI (SF-268): 24.5 µM
CC50 (SF-268): > 100 µM
GI50 (UACC-62): 1.2 µM
LC50 (concentration causing 50% net cell kill) (UACC-62): 6.76 µM
TGI (UACC-62): 2.81 µM
GI50 (UACC-257): 1.99 µM
LC50 (concentration killing 50% of cells) (UACC-257): 8.7 µM
TGI (UACC-257): 4.16 µM
GI50 (A498): 2.51 µM
LC50 (lethal concentration, 50% cell kill) (A498): 19.5 µM
TGI (A498): 5.88 µM
GI50 (LOX IMVI): 0.16 µM
LC50 (LOX IMVI): 0.72 µM
TGI (LOX IMVI): 0.35 µM
GI50 (786-0): 2.63 µM
LC50 (786-0): 30.9 µM
TGI (786-0): 7.07 µM
growth at 100 µM (MCF7): 0%
growth at 100 µM (NCI-H460): 0%
GI50 (NCI-H23): 19.1 µM
TGI (NCI-H23): 40.7 µM
CC50 (NCI-H23): 87.1 µM
GI50 (ACHN): 0.35 µM
TGI (ACHN): 1.25 µM
CC50 (ACHN): 3.54 µM

ClCc1ccc(Cn2cnc3nc(Cl)nc(Cl)c32)cc1
GI50 [1]: 2.08 µM
TGI [1]: 4.46 µM
GI50 (NCI-H522): 1.77 µM
TGI (NCI-H522): 4.57 µM
CC50 (NCI-H522): 38 µM
GI50 (NCI-H226): 1.23 µM
TGI (NCI-H226): 3.89 µM
CC50 (NCI-H226): 15.5 µM
GI50 (CCRF-CEM): 14.8 µM
TGI (CCRF-CEM): 31.6 µM
CC50 (CCRF-CEM): 66.1 µM
GI50 (UO-31): 1.44 µM
LC50 (concentration causing 50% net cell kill) (UO-31): 5.62 µM
TGI (UO-31): 2.88 µM
GI50 (A549): 2.13 µM
TGI (A549): 4.07 µM
CC50 (A549): 7.94 µM
GI50 (OVCAR-8): 1.99 µM
LC50 (concentration killing 50% of cells) (OVCAR-8): 8.31 µM
TGI (OVCAR-8): 4.07 µM
GI50 (K562): 3.31 µM
TGI (K562): > 100 µM
CC50 (K562): > 100 µM
GI50 (SF-539): 1.86 µM
LC50 (concentration killing 50% of cells) (SF-539): 5.88 µM
TGI (SF-539): 3.31 µM
GI50 (HCT-15): 1.81 µM
TGI (HCT-15): 3.54 µM
CC50 (HCT-15): 6.76 µM
GI50 (M14): 1.44 µM
LC50 (M14): 6.91 µM
TGI (M14): 3.16 µM
GI50 (CAKI-1): 1.44 µM
TGI (CAKI-1): 2.75 µM
CC50 (CAKI-1): 5.37 µM
GI50 (SK-MEL-28): 2.18 µM
LC50 (concentration killing 50% of cells) (SK-MEL-28): > 100 µM
TGI (SK-MEL-28): 5.12 µM
GI50 (SN12C): 1.86 µM
LC50 (50% lethal concentration) (SN12C): 6.6 µM
TGI (SN12C): 3.46 µM
GI50 (U-251): 1.77 µM
LC50 (concentration killing 50% of cells) (U-251): 5.75 µM
TGI (U-251): 3.23 µM
GI50 (BT-549): 1.86 µM
LC50 (50% lethal concentration) (BT-549): 6.45 µM
TGI (BT-549): 3.46 µM
GI50 (SF-268): 1.99 µM
TGI (SF-268): 3.98 µM
CC50 (SF-268): 7.94 µM
GI50 (UACC-62): 1.65 µM
LC50 (concentration causing 50% net cell kill) (UACC-62): 6.02 µM
TGI (UACC-62): 3.16 µM
GI50 (UACC-257): 2.23 µM
LC50 (concentration killing 50% of cells) (UACC-257): 34.7 µM
TGI (UACC-257): 5.49 µM
GI50 (A498): 11.2 µM
LC50 (lethal concentration, 50% cell kill) (A498): 49 µM
TGI (A498): 23.4 µM
GI50 (LOX IMVI): 1.62 µM
LC50 (LOX IMVI): 6.45 µM
TGI (LOX IMVI): 3.23 µM
GI50 (786-0): 1.9 µM
LC50 (786-0): 7.41 µM
TGI (786-0): 3.71 µM
growth at 100 µM (MCF7): 1%
growth at 100 µM (NCI-H460): 0%
GI50 (NCI-H23): 2.34 µM
TGI (NCI-H23): 4.57 µM
CC50 (NCI-H23): 8.91 µM
GI50 (ACHN): 1.9 µM
TGI (ACHN): 3.31 µM
CC50 (ACHN): 5.75 µM
GI50 (SNB-19): 29.5 µM
LC50 (SNB-19): > 100 µM
TGI (SNB-19): > 100 µM
